Values quoted from earlier work in US5229007A (priority 1992, dated 1993).

Key:
insect = details: in vivo

SMILES: C/C=C(\C)C(=O)O[C@H]1C[C@@H](OC(C)=O)[C@@]2(C(=O)OC)CO[C@H]3[C@@H](O)[C@@](C)([C@]45O[C@@]4(C)[C@H]4C[C@@H]5O[C@@H]5OC=C[C@@]54O)[C@H]4[C@]1(CO[C@]4(O)C(=O)OC)[C@@H]32 [azadirachtin]
- insect growth regulator and feeding deterrent activity (insect): potent insect growth regulator and feeding deterrent
- stability in alkaline solutions (alkaline solutions): degraded in alkaline solutions
- stability at elevated temperatures (elevated temperatures): decomposes at elevated temperatures
